In US8222440B2, “Compounds and methods for the treatment of cancer” (The Texas A&M University System, priority 2006, dated 2012):

Legend:
mice = conditions: intraperitoneal administration (route stated for arsenic trioxide); cited from earlier work
HL-60 leukemia cells = experiment: Cytotoxicity assay: proliferation of HL-60 cells by 3H-thymidine uptake; assay type: cell-based; conditions: Homo sapiens, doxorubicin positive control at 1 μM on the plate of the test compound, read-out: % Inhibition of DOX (1 μM)

## arsenic trioxide
mice
  LD50 (a dose at which 50% of animals die due to acute toxicity): 10 mg/kg

## COc1cccc2c1C(=O)c1c(O)c3c(c(O)c1C2=O)C[C@@](O)(C(=O)CO)C[C@@H]3O[C@H]1C[C@H](N)[C@H](O)[C@H](C)O1 [DOX, doxorubicin]
HL-60 leukemia cells
  inhibition at 1 µM: 100%
